Assay results from ChEMBL document CHEMBL1124225, “2,3-Diarylindenes and 2,3-diarylindenones: synthesis, molecular structure, photochemistry, estrogen receptor binding affinity, and comparisons with related triarylethylenes” (J Med Chem, 1988).

Each molecule was assayed against Estrogen receptor (Rattus norvegicus) (UniProt P06211+Q62986) (assay: Binding affinity for rat uterine estrogen receptor relative to estradiol).
Format: protein assay
For Oc1ccc(C2=C(c3ccc(O)cc3)c3ccc(O)cc3CC2)cc1, the RBA was 140%. Molecule O=C1C(c2ccccc2)=C(c2ccccc2)c2ccc(O)cc21 has an RBA of 59%. For Oc1ccc(C2=C(c3ccc(O)cc3)c3ccc(O)cc3C2)cc1, the RBA was 15%. With Oc1ccc2c(c1)CC(c1ccccc1)=C2c1ccccc1 the RBA was 8.9%. Oc1ccc2c(c1)Cc1c-2c2ccccc2c2ccccc12 gave an RBA of 0.01%. Molecule O=C1C(c2ccc(O)cc2)=C(c2ccc(O)cc2)c2ccc(O)cc21 has an RBA of 23%.
